Tested on: A549 cell
Test: Cytotoxicity test (SRB method) for A549 cells
Format: cell-based, human
Conditions: for cytotoxicity compared with DPT: A549, in words; for EC50: A549 human lung cancer cell, SRB, 48 hours incubation, read-out: ED50(nM) for A549
Source text: Human lung carcinomas A549 and […] were used for determining cytotoxicity of the compounds of the present invention according to the Sulfrhodamine-B (SRB) method which was developed by NCI in 1989 in order to determine in vitro anticancer activity of drugs.
Cells to be used in the experiment were separated from a surface using 0.5% Trypsin-EDTA solution and suspended in a density of 5×10^4 cell/ml therein. The cell suspension was introduced into a 96-well plate in an amount of 180/well and incubated for 24 hours in a 5% CO2 incubator of 37° C. Samples were dissolved in dimethylsulfoxide and then diluted by water distilled in advance for three times just before the experiment. Forty-one (41) samples were prepared into 4 types of final concentrations, i.e., 0.1, 0.03, 0.01 and 0.003 mg per ml of the medium. The diluted sample solutions were added to the 96-well plate in the amount of 20 μl/well and incubated for 48 hours in a CO2 incubator of 37° C. At the time of adding the samples, Tz (Time zero) plate was taken. The medium was removed from the Tz plate and each of the plates after incubation were completed. Ten (10)% […] (TCA) was added in the amount of […], and allowed to stand for 1 hour at 4° C. to fix the cells on the bottom surface of the plate. After the cells were fixed, the plate was washed five to six times with water to completely remove the remaining TCA solution and then dried at room temperature to completely remove the moisture. To the fully dried plate was introduced a dye solution in the amount of […] in which 0.4% SRB was dissolved in 1% acetic acid solution. […] After the dyeing process, the plate was dried again at room temperature. 100 ml of 10 mM Tris solution was added thereto in order to dissolve the dye, and then O.D. (optical density) was determined by microplate reader at 520 nm.
ED50 values for cancer cells were calculated as follows. The amount of SRB protein was analyzed at the time when incubation started by the addition of the sample. This amount was named time zero (Tz). The O.D. value obtained from a group which was not treated by the sample was named Control group (C) and the O.D. value obtained from a group which was treated by the sample was named Test group (T).
The degree of cytotoxicity of the compounds was calculated from Tz, C and T values according to the following equation.
That is, in the case of Tz≧T, the degree was calculated by
(T−Tz)/(C−Tz)×100(%), and
• in the case of Tz<T, the degree was calculated by […].
From the values thus obtained, ED50 value which is defined as the concentration at which growth of the cancer cell is inhibited by 50% was calculated using the regression function of Excel program.

For `COc1cc(C2c3cc4c(cc3CC3COC(=O)C32)OCO4)cc(OC)c1OC(=O)[C@H](C)N` (stereo partly shown) [Compound 1a-1, 4′-demethyl-4′-O-alanoyl-1-deoxypodophyllotoxin], the “cytotoxicity compared with DPT” value was “stronger cytotoxicity than DPT” and the EC50 was 21.9 nM.
`COc1cc(C2c3cc4c(cc3CC3COC(=O)C32)OCO4)cc(OC)c1OC(=O)C(N)C(C)C` (stereo not shown) [Compound 1a-3, 4′-demethyl-4′-O-valinoyl-1-deoxypodophyllotoxin] was tested, and the EC50 was 88.2 nM.
Molecule `COc1cc(C2c3cc4c(cc3CC3COC(=O)C32)OCO4)cc(OC)c1OC(=O)CN` (stereo not shown) [Compound 1a-4, 4′-demethyl-4′-O-glycinoyl-1-deoxypodophyllotoxin] has an EC50 of 102 nM.
With `COc1cc(C2c3cc4c(cc3CC3COC(=O)C32)OCO4)cc(OC)c1OC(=O)C(N)CO` (stereo not shown) [Compound 1a-5, 4′-demethyl-4′-O-serinoyl-1-deoxypodophyllotoxin] the “cytotoxicity compared with DPT” value was “stronger cytotoxicity than DPT” and the EC50 was 55 nM.
`COc1cc(C2c3cc4c(cc3CC3COC(=O)C32)OCO4)cc(OC)c1OC(=O)C(N)Cc1ccccc1` (stereo not shown) [Compound 1a-7, 4′-demethyl-4′-O-phenylalanoyl-1-deoxypodophyllotoxin] was tested, and the EC50 was 86.6 nM.
Molecule `COc1cc(C2c3cc4c(cc3CC3COC(=O)C32)OCO4)cc(OC)c1OC(=O)[C@@H](N)Cc1ccc(O)cc1` (stereo partly shown) [Compound 1a-9, 4′-demethyl-4′-O-tyrosinoyl-1-deoxypodophyllotoxin] has an EC50 of 104 nM.
Molecule `COc1cc(C2c3cc4c(cc3CC3COC(=O)C32)OCO4)cc(OC)c1OC(=O)Cc1ccc(N)cc1` (stereo not shown) [Compound 1a-16, 4′-demethyl-4′-O-(4-aminophenylacetyl)-1-deoxypodophyllotoxin] has an EC50 of 114 nM.
With `CCNC(=O)Oc1c(OC)cc(C2c3cc4c(cc3CC3COC(=O)C32)OCO4)cc1OC` (stereo not shown) [Compound 1b-1, 4′-demethyl-4′-O-ethylcarbamoyl-1-deoxypodophyllotoxin] the EC50 was 132 nM.
`COc1cc(C2c3cc4c(cc3CC3COC(=O)C32)OCO4)cc(OC)c1OC(=O)NC(=O)CCl` (stereo not shown) [Compound 1b-6, 4′-demethyl-4′-O-chloroacetylcarbamoyl-1-deoxypodophyllotoxin] gave an EC50 of 80.3 nM.
In the case of `C=CCNC(=O)Oc1c(OC)cc(C2c3cc4c(cc3CC3COC(=O)C32)OCO4)cc1OC` (stereo not shown) [Compound 1b-7, 4′-demethyl-4′-O-allylcarbamoyl-1-deoxypodophyllotoxin], the EC50 is reported as 90.5 nM.
`COc1cc(C2c3cc4c(cc3CC3COC(=O)C32)OCO4)cc(OC)c1OC(=O)Nc1ccccc1` (stereo not shown) [Compound 1b-8, 4′-demethyl-4′-O-phenylcarbamoyl-1-deoxypodophyllotoxin] gave an EC50 of 177 nM.
`COc1cc(C2c3cc4c(cc3CC3COC(=O)C32)OCO4)cc(OC)c1OC(=O)Nc1ccc(F)cc1` (stereo not shown) [Compound 1b-9, 4′-demethyl-4′-O-(4-fluorophenylcarbamoyl)-1-deoxypodophyllo-toxin] gave an EC50 of 86.3 nM.
`COc1ccc(NC(=O)Oc2c(OC)cc(C3c4cc5c(cc4CC4COC(=O)C43)OCO5)cc2OC)cc1` (stereo not shown) [Compound 1b-10, 4′-demethyl-4′-O-(4-methoxyphenylcarbamoyl)-1-deoxypodophyllotoxin] showed an EC50 of 95.6 nM.
In the case of `COc1cc(C2c3cc4c(cc3CC3COC(=O)C32)OCO4)cc(OC)c1OC(=O)Nc1ccc(C)cc1` (stereo not shown) [Compound 1b-11, 4′-demethyl-4′-O-(4-methylphenylcarbamoyl)-1-deoxypodophyllotoxin], the EC50 is reported as 99.3 nM.
With `COc1cc(C2c3cc4c(cc3CC3COC(=O)C32)OCO4)cc(OC)c1OC(=O)Nc1ccc(SC)cc1` (stereo not shown) [Compound 1b-12, 4′-demethyl-4′-O-(4-methylthiophenylcarbamoyl)-1-deoxypodophyllotoxin] the EC50 was 106 nM.
In the case of `COc1ccccc1NC(=O)Oc1c(OC)cc(C2c3cc4c(cc3CC3COC(=O)C32)OCO4)cc1OC` (stereo not shown) [Compound 1b-13, 4′-demethyl-4′-O-(2-methoxyphenylcarbamoyl)-1-deoxypodophyllotoxin], the “cytotoxicity compared with DPT” value is reported as “stronger cytotoxicity than DPT” and the EC50 is reported as 66.2 nM.
